Assay results published in patent US20230295234A1, “ANTIMICROBIAL PEPTIDOMIMETICS” (SPEXIS AG, priority 2020, published 2023).
Bridge positions count the residues as written; N and C are the ends. Square brackets hold non-standard residues; d marks the D form. Peptide text beside a SMILES is read from it. Pro(4R-NH2) = N[C@H]1CN[C@H](C(=O)O)C1; Gly(N-2-aminoethyl) = NCCNCC(=O)O; Pen = CC(C)(S)[C@H](N)C(=O)O; dDab = NCC[C@@H](N)C(=O)O; Nle = CCCC[C@H](N)C(=O)O; Dab = NCC[C@H](N)C(=O)O

How the values were obtained:
[1] = tested on: human red blood cells (hRBC); assay: Hemolysis of human red blood cells; assay type: cell-based; details: red cells of human, 1 h
Method: Lyophilized peptides were weighed on a Microbalance (Mettler MT5) and dissolved in sterile water to a final concentration of 1 mg/mL. Stock solutions were kept at +4° C., light protected. The peptides were tested for their hemolytic activity against human red blood cells (hRBC). Fresh hRBC were washed three times with phosphate buffered saline (PBS) and centrifuged for 5 min at 3000×g. Compounds (200 μg/mL) were incubated with 20% hRBC (v/v) for 1 h at 37° C. and shaking at 300 rpm. […] The samples were centrifuged, the supernatants were 8-fold diluted in PBS buffer and the optical densities (OD) were measured at 540 nm. […] Percent hemolysis was calculated as follows: (OD540peptide/OD540H2O)×100%.

[2] = tested on: Escherichia coli ATCC 25922; details: ATCC 25922
Method: (§1) Lyophilized peptides were weighed on a Microbalance (Mettler MT5) and dissolved in sterile water to a final concentration of 1 mg/mL. Stock solutions were kept at +4° C., light protected.
(§2) Colonies of the microorganisms were diluted in saline (0.85%, NaCl) and adjusted using a McFarland reader (bioMérieux SA, Marcy-l'Etoile, France) to 0.5 McFarland standard. Subsequently, the bacterial suspension was diluted in Mueller-Hinton II (MHII, cation adjusted) broth to give approximately 5×10^5 colony forming units (CFU/mL).
(§3) 10^6 colony forming units (CFU)/mL. Aliquots (90 μl) of inoculate were added to 10 μl of water+P-80 (Polysorbate 80, 0.002% final concentration) containing the peptide in serial two-fold dilutions at 10 fold final concentration. The following microorganisms were used to determine antibiotic selectivity of the peptides: Escherichia coli ATCC 25922, Escherichia coli MCR-1 Af 45 and Klebsiella pneumoniae SSI3010.

[3] = tested on: Escherichia coli MCR-1 Af 45; details: MCR-1 Af 45
Method: as §1, §2, §3

[4] = tested on: Klebsiella pneumoniae SSI3010; details: SSI3010
Method: as §1, §2, §3

Compound: CCCC[C@H](NC(=O)[C@H](CCCNC(=N)N)NC(=O)[C@H](CCN)NC(=O)[C@@H]1CSSC(C)(C)[C@H](NC(=O)[C@H](Cc2ccc(O)cc2)NC(=O)[C@@H](NC(=O)[C@@H](NC(=O)[C@@H]2C[C@@H](N)CN2C(=O)[C@@H](NC(=O)[C@@H]2CCCN2)C(C)C)[C@@H](C)CC)[C@@H](C)CC)C(=O)N[C@@H](CC(N)=O)C(=O)N[C@@H](CCCNC(=N)N)C(=O)N[C@@H](CCN)C(=O)N[C@@H]([C@@H](C)O)C(=O)N[C@H](CCN)C(=O)N[C@@H](CCCCN)C(=O)N1)C(=O)O [Example 5, Pro-Val-Pro((4R)NH2)-Ile-Ile-Tyr-Pen-Asn-Arg-Dab-Thr-^DDab-Lys-Cys-Dab-Arg-Nle] (HELM PEPTIDE1{P.V.[N[C@@H]1C[C@@H](C(=O)[*:2])N([*:1])C1].I.I.Y.[Pen].N.R.[Dab].T.[NCC[C@@H](N[*:1])C(=O)[*:2]].K.C.[Dab].R.[Nle]}$PEPTIDE1,PEPTIDE1,7:R3-14:R3$$$V2.0)
- Hemolysis at 0.2 g/L [1]: 0%
- Escherichia coli ATCC 25922 MIC [2]: 0.0625 mg/L
- Escherichia coli MCR-1 Af 45 MIC [3]: 0.0625 mg/L
- Klebsiella pneumoniae SSI3010 MIC [4]: 0.25 mg/L

Compound: CCCC[C@H](NC(=O)[C@H](CCCNC(=N)N)NC(=O)[C@H](CCN)NC(=O)[C@@H]1CSSC(C)(C)[C@H](NC(=O)[C@H](Cc2ccc(O)cc2)NC(=O)[C@@H](NC(=O)[C@@H](NC(=O)[C@@H]2CCCN2C(=O)[C@@H](NC(=O)CNCCN)C(C)C)[C@@H](C)CC)[C@@H](C)CC)C(=O)N[C@@H](CC(N)=O)C(=O)N[C@@H](CCCNC(=N)N)C(=O)N[C@@H](CCN)C(=O)N[C@@H]([C@@H](C)O)C(=O)N[C@H](CCN)C(=O)N[C@@H](CCCCN)C(=O)N1)C(=O)O [Example 6, Ndab-Val-Pro-Ile-Ile-Tyr-Pen-Asn-Arg-Dab-Thr-^DDab-Lys-Cys-Dab-Arg-Nle] (HELM PEPTIDE1{[NCCNCC(=O)[*:2]].V.P.I.I.Y.[Pen].N.R.[Dab].T.[NCC[C@@H](N[*:1])C(=O)[*:2]].K.C.[Dab].R.[Nle]}$PEPTIDE1,PEPTIDE1,7:R3-14:R3$$$V2.0)
- Hemolysis at 0.2 g/L [1]: 0%
- Escherichia coli ATCC 25922 MIC [2]: 0.125 mg/L
- Escherichia coli MCR-1 Af 45 MIC [3]: 0.125 mg/L
- Klebsiella pneumoniae SSI3010 MIC [4]: 0.25 mg/L

Compound: CCCC[C@H](NC(=O)[C@H](CCCNC(=N)N)NC(=O)[C@H](CCN)NC(=O)[C@@H]1CSSC(C)(C)[C@H](NC(=O)[C@H](Cc2ccc(O)cc2)NC(=O)[C@@H](NC(=O)[C@@H](NC(=O)CN(CCN)C(=O)[C@@H](NC(=O)[C@@H]2CCCN2)C(C)C)[C@@H](C)CC)[C@@H](C)CC)C(=O)N[C@@H](CC(N)=O)C(=O)N[C@@H](CCCNC(=N)N)C(=O)N[C@@H](CCN)C(=O)N[C@@H]([C@@H](C)O)C(=O)N[C@H](CCN)C(=O)N[C@@H](CCCCN)C(=O)N1)C(=O)O [Example 7, Pro-Val-Ndab-Ile-Ile-Tyr-Pen-Asn-Arg-Dab-Thr-^DDab-Lys-Cys-Dab-Arg-Nle] (HELM PEPTIDE1{P.V.[NCCN(CC(=O)[*:2])[*:1]].I.I.Y.[Pen].N.R.[Dab].T.[NCC[C@@H](N[*:1])C(=O)[*:2]].K.C.[Dab].R.[Nle]}$PEPTIDE1,PEPTIDE1,7:R3-14:R3$$$V2.0)
- Hemolysis at 0.2 g/L [1]: 0%
- Escherichia coli ATCC 25922 MIC [2]: 0.125 mg/L
- Escherichia coli MCR-1 Af 45 MIC [3]: 0.25 mg/L
- Klebsiella pneumoniae SSI3010 MIC [4]: 0.25 mg/L

Compound: CCCC[C@H](NC(=O)[C@H](CCCNC(=N)N)NC(=O)[C@H](CCN)NC(=O)[C@@H]1CSSC(C)(C)[C@H](NC(=O)[C@H](Cc2ccc(O)cc2)NC(=O)[C@@H](NC(=O)[C@@H](NC(=O)[C@@H]2C[C@@H](N)CN2C(=O)[C@@H](NC(=O)[C@@H]2C[C@@H](N)CN2)C(C)C)[C@@H](C)CC)[C@@H](C)CC)C(=O)N[C@@H](CC(N)=O)C(=O)N[C@@H](CCCNC(=N)N)C(=O)N[C@@H](CCN)C(=O)N[C@@H]([C@@H](C)O)C(=O)N[C@H](CCN)C(=O)N[C@@H](CCCCN)C(=O)N1)C(=O)O [Example 8, Pro((4R)NH2)-Val-Pro((4R)NH2)-Ile-Ile-Tyr-Pen-Asn-Arg-Dab-Thr-^DDab-Lys-Cys-Dab-Arg-Nle] (H-[Pro(4R-NH2)]V[Pro(4R-NH2)]IIY[Pen]NR[Dab]T[dDab]KC[Dab]R[Nle]-OH; disulfide 7-14)
- Hemolysis at 0.2 g/L [1]: 0%
- Escherichia coli ATCC 25922 MIC [2]: 0.0625 mg/L
- Escherichia coli MCR-1 Af 45 MIC [3]: 0.0625 mg/L
- Klebsiella pneumoniae SSI3010 MIC [4]: 0.125 mg/L

Compound: CCCC[C@H](NC(=O)[C@H](CCCNC(=N)N)NC(=O)[C@H](CCN)NC(=O)[C@@H]1CSSC(C)(C)[C@H](NC(=O)[C@H](Cc2ccc(O)cc2)NC(=O)[C@@H](NC(=O)[C@@H](NC(=O)[C@@H]2C[C@@H](N)CN2C(=O)[C@@H](NC(=O)[C@@H]2C[C@@H](N)CN2)C(C)C)[C@@H](C)CC)[C@@H](C)O)C(=O)N[C@@H](CC(N)=O)C(=O)N[C@@H](CCCNC(=N)N)C(=O)N[C@@H](CCN)C(=O)N[C@@H]([C@@H](C)O)C(=O)N[C@H](CCN)C(=O)N[C@@H](CCCCN)C(=O)N1)C(=O)O [Example 9, Pro((4R)NH2)-Val-Pro((4R)NH2)-Ile-Thr-Tyr-Pen-Asn-Arg-Dab-Thr-^DDab-Lys-Cys-Dab-Arg-Nle] (H-[Pro(4R-NH2)]V[Pro(4R-NH2)]ITY[Pen]NR[Dab]T[dDab]KC[Dab]R[Nle]-OH; disulfide 7-14)
- Hemolysis at 0.2 g/L [1]: 0%
- Escherichia coli ATCC 25922 MIC [2]: 0.0625 mg/L
- Escherichia coli MCR-1 Af 45 MIC [3]: 0.0625 mg/L
- Klebsiella pneumoniae SSI3010 MIC [4]: 0.125 mg/L

Compound: CCCC[C@H](NC(=O)[C@H](CCCNC(=N)N)NC(=O)[C@H](CCN)NC(=O)[C@@H]1CSSC(C)(C)[C@H](NC(=O)[C@H](Cc2ccc(O)cc2)NC(=O)[C@@H](NC(=O)[C@@H](NC(=O)CN(CCN)C(=O)[C@@H](NC(=O)[C@@H]2C[C@@H](N)CN2)C(C)C)[C@@H](C)CC)[C@@H](C)CC)C(=O)N[C@@H](CC(N)=O)C(=O)N[C@@H](CCCNC(=N)N)C(=O)N[C@@H](CCN)C(=O)N[C@@H]([C@@H](C)O)C(=O)N[C@H](CCN)C(=O)N[C@@H](CCCCN)C(=O)N1)C(=O)O [Example 10, Pro((4R)NH2)-Val-Ndab-Ile-Ile-Tyr-Pen-Asn-Arg-Dab-Thr-^DDab-Lys-Cys-Dab-Arg-Nle] (H-[Pro(4R-NH2)]V[Gly(N-2-aminoethyl)]IIY[Pen]NR[Dab]T[dDab]KC[Dab]R[Nle]-OH; disulfide 7-14)
- Hemolysis at 0.2 g/L [1]: 0%
- Escherichia coli ATCC 25922 MIC [2]: 0.125 mg/L
- Escherichia coli MCR-1 Af 45 MIC [3]: 0.125 mg/L
- Klebsiella pneumoniae SSI3010 MIC [4]: 0.25 mg/L

Compound: CCCC[C@H](NC(=O)[C@H](CCCNC(=N)N)NC(=O)[C@H](CCN)NC(=O)[C@@H]1CSSC(C)(C)[C@H](NC(=O)[C@H](Cc2ccc(O)cc2)NC(=O)[C@@H](NC(=O)[C@@H](NC(=O)[C@@H]2C[C@@H](N)CN2C(=O)[C@@H](NC(=O)CNCCN)C(C)C)[C@@H](C)CC)[C@@H](C)CC)C(=O)N[C@@H](CC(N)=O)C(=O)N[C@@H](CCCNC(=N)N)C(=O)N[C@@H](CCN)C(=O)N[C@@H]([C@@H](C)O)C(=O)N[C@H](CCN)C(=O)N[C@@H](CCCCN)C(=O)N1)C(=O)O [Example 11, Ndab-Val-Pro((4R)NH2)-Ile-Ile-Tyr-Pen-Asn-Arg-Dab-Thr-^DDab-Lys-Cys-Dab-Arg-Nle] (H-[Gly(N-2-aminoethyl)]V[Pro(4R-NH2)]IIY[Pen]NR[Dab]T[dDab]KC[Dab]R[Nle]-OH; disulfide 7-14)
- Hemolysis at 0.2 g/L [1]: 0%
- Escherichia coli ATCC 25922 MIC [2]: 0.0625 mg/L
- Escherichia coli MCR-1 Af 45 MIC [3]: ≤0.03125 mg/L
- Klebsiella pneumoniae SSI3010 MIC [4]: 0.125 mg/L

Compound: CCCC[C@H](NC(=O)[C@H](CCCNC(=N)N)NC(=O)[C@H](CCN)NC(=O)[C@@H]1CSSC(C)(C)[C@H](NC(=O)[C@H](Cc2ccc(O)cc2)NC(=O)[C@@H](NC(=O)[C@@H](NC(=O)CN(CCN)C(=O)[C@@H](NC(=O)CNCCN)C(C)C)[C@@H](C)CC)[C@@H](C)O)C(=O)N[C@@H](CC(N)=O)C(=O)N[C@@H](CCCNC(=N)N)C(=O)N[C@@H](CCN)C(=O)N[C@@H]([C@@H](C)O)C(=O)N[C@H](CCN)C(=O)N[C@@H](CCCCN)C(=O)N1)C(=O)O [Example 12, Ndab-Val-Ndab-Ile-Thr-Tyr-Pen-Asn-Arg-Dab-Thr-^DDab-Lys-Cys-Dab-Arg-Nle] (H-[Gly(N-2-aminoethyl)]V[Gly(N-2-aminoethyl)]ITY[Pen]NR[Dab]T[dDab]KC[Dab]R[Nle]-OH; disulfide 7-14)
- Hemolysis at 0.2 g/L [1]: 0%
- Escherichia coli ATCC 25922 MIC [2]: 0.25 mg/L
- Escherichia coli MCR-1 Af 45 MIC [3]: 0.0625 mg/L
- Klebsiella pneumoniae SSI3010 MIC [4]: 0.25 mg/L
